Test results as given in ChEMBL document CHEMBL2429819, “Synthesis, antibacterial screening, and POM analyses of novel bis-isoxazolyl/pyrazolyl-1,3-diols” (2013).
Calls of active or inactive are those of the source. The rule behind the calls is not given here.

How the values were obtained:
Assay type in all cases: functional
Conditions in all cases: for zone of inhibition at 100 µg/mL: read-out: DIZ
Proteus vulgaris = assay: Antibacterial activity against Proteus vulgaris at 100 ug/ml after 24 hrs
Bacillus subtilis = assay: Antibacterial activity against Bacillus subtilis at 100 ug/ml after 24 hrs
Escherichia coli = assay: Antibacterial activity against Escherichia coli at 100 ug/ml after 24 hrs
Muscodor albus = assay: Antibacterial activity against Muscodor albus at 100 ug/ml after 24 hrs

Row | Compound | zone of inhibition at 100 µg/mL (Proteus vulgaris) | zone of inhibition at 100 µg/mL (Bacillus subtilis) | zone of inhibition at 100 µg/mL (Escherichia coli) | zone of inhibition at 100 µg/mL (Muscodor albus) | diameter of the inhibition zone (DIZ) (Bacillus subtilis) | diameter of the inhibition zone (DIZ) (Escherichia coli) | diameter of the inhibition zone (DIZ) (Proteus vulgaris) | diameter of the inhibition zone (DIZ) (Muscodor albus)
1 | COc1ccc(-c2cc(-c3cc(-c4cc(-c5ccc(OC)cc5)on4)c(O)cc3O)no2)cc1 | 15.4 mm | 16.5 mm | 14.3 mm | 15.9 mm |  |  |  | 
2 | Oc1cc(O)c(-c2cc(-c3cccnc3)[nH]n2)cc1-c1cc(-c2cccnc2)[nH]n1 | 15.4 mm | 14.2 mm | 15.2 mm | 15.3 mm |  |  |  | 
3 | O=C(CC(=O)c1cc(C(=O)CC(=O)c2cccnc2)c(O)cc1O)c1cccnc1 | 14.2 mm | 11.9 mm | 16.4 mm | 15.7 mm |  |  |  | 
4 | Cc1ccc(C(=O)CC(=O)c2cc(C(=O)CC(=O)c3ccc(C)cc3)c(O)cc2O)cc1 | 12.6 mm | 16.2 mm | 13.8 mm | 13.1 mm |  |  |  | 
5 | Oc1cc(O)c(-c2cc(-c3cccnc3)on2)cc1-c1cc(-c2cccnc2)on1 | 11.9 mm | 15.8 mm | 12.4 mm | 16.1 mm |  |  |  | 
6 | Oc1cc(O)c(-c2cc(-c3cccs3)[nH]n2)cc1-c1cc(-c2cccs2)[nH]n1 | 15.3 mm |  | 15.4 mm | 11.7 mm | inactive |  |  | 
7 | O=C(CC(=O)c1cc(C(=O)CC(=O)c2ccc(Cl)cc2)c(O)cc1O)c1ccc(Cl)cc1 | 11 mm | 13.2 mm |  | 15 mm |  | inactive |  | 
8 | Oc1cc(O)c(-c2cc(-c3ccc(Cl)cc3)[nH]n2)cc1-c1cc(-c2ccc(Cl)cc2)[nH]n1 | 15.7 mm | 16.2 mm | 15 mm | 15.7 mm |  |  |  | 
9 | CC[C@H]1OC(=O)[C@H](C)[C@@H](O[C@H]2C[C@@](C)(OC)[C@@H](O)[C@H](C)O2)[C@H](C)[C@@H](O[C@@H]2O[C@H](C)C[C@H](N(C)C)[C@H]2O)[C@](C)(O)C[C@@H](C)C(=O)[C@H](C)[C@@H](O)[C@]1(C)O [ERYTHROMYCIN] | 25.1 mm | 27.1 mm | 27.4 mm | 26.1 mm |  |  |  | 
10 | COc1ccc(-c2cc(-c3cc(-c4cc(-c5ccc(OC)cc5)[nH]n4)c(O)cc3O)n[nH]2)cc1 |  | 15.5 mm | 12.1 mm | 14.4 mm |  |  | inactive | 
11 | NC[C@@H]1O[C@H](O[C@H]2[C@@H](O)[C@H](O[C@@H]3[C@@H](O)[C@H](N)C[C@H](N)[C@H]3O[C@H]3O[C@H](CN)[C@@H](O)[C@H](O)[C@H]3N)O[C@@H]2CO)[C@H](N)[C@@H](O)[C@@H]1O [FRAMYCETIN] | 25.3 mm | 26.1 mm | 26.1 mm | 25.8 mm |  |  |  | 
12 | Oc1cc(O)c(-c2cc(-c3ccc(Cl)cc3)on2)cc1-c1cc(-c2ccc(Cl)cc2)on1 | 13.2 mm | 13.7 mm | 12.7 mm | 15 mm |  |  |  | 
13 | Oc1cc(O)c(-c2cc(-c3cccs3)on2)cc1-c1cc(-c2cccs2)on1 |  | 13.2 mm | 12.5 mm | 16 mm |  |  | inactive | 
14 | COc1ccc(C(=O)CC(=O)c2cc(C(=O)CC(=O)c3ccc(OC)cc3)c(O)cc2O)cc1 |  | 14.9 mm | 11.4 mm | 16.1 mm |  |  | inactive | 
15 | Oc1cc(O)c(-c2cc(-c3ccccc3)[nH]n2)cc1-c1cc(-c2ccccc2)[nH]n1 | 15.2 mm | 12.2 mm | 15.2 mm | 14 mm |  |  |  | 
16 | Cc1ccc(-c2cc(-c3cc(-c4cc(-c5ccc(C)cc5)on4)c(O)cc3O)no2)cc1 | 11.4 mm | 12.7 mm |  | 14.7 mm |  | inactive |  | 
17 | Oc1cc(O)c(-c2cc(-c3ccccc3)on2)cc1-c1cc(-c2ccccc2)on1 | 15.2 mm | 11.2 mm | 17 mm |  |  |  |  | inactive
18 | Cc1ccc(-c2cc(-c3cc(-c4cc(-c5ccc(C)cc5)[nH]n4)c(O)cc3O)n[nH]2)cc1 | 15.7 mm | 12.4 mm | 14.7 mm |  |  |  |  | inactive
19 | O=C(CC(=O)c1cc(C(=O)CC(=O)c2ccccc2)c(O)cc1O)c1ccccc1 | 13.3 mm | 15.8 mm | 12.4 mm | 15.2 mm |  |  |  | 
20 | O=C(CC(=O)c1cc(C(=O)CC(=O)c2cccs2)c(O)cc1O)c1cccs1 | 14.9 mm | 15.5 mm | 15.5 mm | 14.9 mm |  |  |  | 
